Reference: PubChem BioAssay AID1996
Converted amounts (≈) assume the structure as drawn.

settings: buffer; pH 7.4; 200.0 µM

Compound	solubility kinetic
O=C(O)c1cc(S(=O)(=O)NCCCN2CCCC2=O)ccc1Cl	> 54.1 µg/mL
CCC1CCCCN1C(=O)COc1ccc2c(c1)OCO2 (stereo unspecified)	> 43.7 µg/mL
Cn1cccc1C(=O)NCC(c1ccc(F)cc1)N1CCOCC1 (stereo unspecified)	47.3 µg/mL (≈ 143 µM)
CCc1nonc1NC(=O)c1oc2ccc(Cl)cc2c1C	< 0.2 µg/mL
CC(=O)OCC(=O)Nc1c(C)cccc1C	> 33.2 µg/mL
O=C1NCC(O)=C1C=Nc1ccccc1O	> 32.7 µg/mL
COc1ccc(S(N)(=O)=O)cc1C(=O)OCC(=O)N1CCCC(C)C1 (stereo unspecified)	> 55.6 µg/mL
O=C(NC1CCN(Cc2cccc([N+](=O)[O-])c2)CC1)c1ccccc1	32.4 µg/mL (≈ 95.5 µM)
Cc1ccc(CNC(=O)COC(=O)c2ccc(S(=O)(=O)N3CCOCC3)cc2)cc1	6.5 µg/mL (≈ 15 µM)
COc1ccc(OCC(O)CN2CCCC2)cc1 (stereo unspecified)	30.7 µg/mL (≈ 122 µM)
CC1CC1C(=O)N(C)CC(=O)Nc1cccc(F)c1 (stereo unspecified)	> 39.6 µg/mL
N/C(CC1CC1(Cl)Cl)=N\OC(=O)c1ccccc1 (stereo unspecified)	> 43.1 µg/mL
COc1ccccc1N1CCN(CCN2C(=O)C3CCCCN3C2=O)CC1 (stereo unspecified)	40.8 µg/mL (≈ 110 µM)
C#CC(C)(CC)NC(=O)c1cc2cccc(CC=C)c2oc1=O (stereo unspecified)	0.8 µg/mL (≈ 2.59 µM)
FC(F)Oc1ccc(NC(=S)NCc2nc3ccccc3[nH]2)cc1	> 52.3 µg/mL
CCOC(=O)c1csc(NC(=O)c2ccc(OCC)cc2)n1	0.8 µg/mL (≈ 2.5 µM)
CNC(=S)N(Cc1ccc(Cl)cc1)Cc1cccs1	16 µg/mL (≈ 51.5 µM)
O=C(COC(=O)/C=C/c1ccc(S(=O)(=O)N2CCOCC2)cc1)Nc1ccc(F)c(F)c1F	11.6 µg/mL (≈ 23.9 µM)
Cc1nn(CC(=O)OCC(=O)NCCc2ccc(F)cc2)c(C)c1[N+](=O)[O-]	> 56.8 µg/mL
Nc1nc2c(F)c(F)c(F)cc2s1	21.7 µg/mL (≈ 106 µM)
NC(CS(=O)O)C(=O)O (stereo unspecified)	> 23 µg/mL

Compound	solubility kinetic
COc1cccc(NC(=O)CN(C)C(=O)[C@@H]2CCCN2C(=O)c2cccs2)c1	> 60.2 µg/mL
CCOC(=O)/C(C#N)=C/c1cccc(F)c1	28.6 µg/mL (≈ 130 µM)
CCOc1ccc(NC(=O)NC2CCS(=O)(=O)C2)cc1 (stereo unspecified)	> 44.8 µg/mL
COc1ccc(S(=O)(=O)NC2CC(C)(C)NC(C)(C)C2)cc1	> 49 µg/mL
Cc1cc(/C=C(\C#N)C(=O)NCc2ccco2)c(C)n1-c1cccnc1	10.7 µg/mL (≈ 30.9 µM)
NS(=O)(=O)c1ccc(CNC(=O)Cc2ccccc2F)cc1	> 48.4 µg/mL
COC(=O)C1=C(C)Nc2nc3ccccc3n2C1c1ccccc1F (stereo unspecified)	0.3 µg/mL (≈ 0.889 µM)
CCOc1ccccc1OC(=O)CN1C(=O)c2ccccc2C1=O	16.2 µg/mL (≈ 49.8 µM)
CCOC(=O)c1sc(NC(=O)CCc2ccccc2)nc1C	< 0.3 µg/mL
O=[N+]([O-])c1cccc(Nc2c3ccccc3nc3ccccc23)c1	2.8 µg/mL (≈ 8.88 µM)
CC(C)Cc1ccc(/C=C/C(=O)N2CCCCC2)cc1	11.6 µg/mL (≈ 42.7 µM)
O=C1C(Cl)=C(N2CCCCCC2)C(=O)N1c1ccc(Cl)cc1	26.2 µg/mL (≈ 77.2 µM)
CCCCCC1CCC(C(=O)N2CCOCC2)CC1 (stereo unspecified)	27.7 µg/mL (≈ 104 µM)
CC(=O)c1c(C)[nH]c(C(=O)/C(C#N)=C/c2cccc(C)c2)c1C	39.5 µg/mL (≈ 129 µM)
CNC(=S)NNC(=O)Cc1ccc(OC)cc1	> 38 µg/mL
CC1CCN(CCc2nc3cc(NC(=O)C(C)C)ccc3n2C)CC1	36.7 µg/mL (≈ 107 µM)
OC(CC#CCN1CCCC1)(c1ccccc1)c1ccccc1	36.7 µg/mL (≈ 120 µM)
CCCCOc1ccc(CC(=O)NO)cc1	> 33.5 µg/mL
NC(=O)C1CCN(C(=O)CCC(=O)c2cccs2)CC1	> 44.2 µg/mL
CC(CN(C)C)CN1c2ccccc2CCc2ccccc21.O=C(O)/C=C\C(=O)O (stereo unspecified)	> 61.6 µg/mL
CCOc1ccc(NC2=NCCCS2)cc1	> 35.4 µg/mL

Compound	solubility kinetic
CC(=O)c1ccc(NC(=S)N2CCCCCC2)cc1	> 41.5 µg/mL
COc1ccc(C(=O)Nc2cc(C)c(NC(=O)c3ccccn3)cn2)cc1	1.9 µg/mL (≈ 5.24 µM)
O=C(/C=C/c1ccc(S(=O)(=O)N2CCOCC2)cc1)NC(CO)C(O)c1ccc([N+](=O)[O-])cc1 (stereo unspecified)	> 73.7 µg/mL
Cc1sc2ncnc(SCC(=O)NC(C)(C)C)c2c1C	19.3 µg/mL (≈ 62.4 µM)
COc1ccccc1CNC(=O)CSc1nc(C)cs1	> 46.3 µg/mL
Cc1ccc(NC(=O)c2ccsc2)cc1NS(C)(=O)=O	> 46.6 µg/mL
COc1cccc(C(=O)Nc2cc(Cl)c(O)c(Cl)c2)c1	15 µg/mL (≈ 48.1 µM)
CCOc1ccc(CCNC(=O)Nc2ccccc2C)cc1OCC	3.2 µg/mL (≈ 9.34 µM)
CCc1sc(NC(=O)CN2CCC(C(N)=O)CC2)nc1-c1ccccc1	> 55.9 µg/mL
COc1cc(-c2nc3ccccn3c2N)ccc1O	> 38.3 µg/mL
O=C(CSc1ccc(-c2cccnc2)nn1)N1CCCCC1	> 47.2 µg/mL
COc1ccc(C2OCC3(CO2)SC(=O)NC3=O)cc1OC (stereo unspecified)	44.8 µg/mL (≈ 138 µM)
COc1cccc(-c2cc(C(=O)NCc3ccco3)c3ccccc3n2)c1	11.6 µg/mL (≈ 32.4 µM)
CNC(=O)c1ncoc1-c1ccc(Cl)cc1	33.8 µg/mL (≈ 143 µM)
Cc1cc([N+](=O)[O-])nn1CC(=O)NCc1ccccc1	> 41.1 µg/mL
COc1ccc(CNC(=O)COC(=O)C2(C)CC2(Cl)Cl)cc1 (stereo unspecified)	> 51.9 µg/mL
NS(=O)(=O)c1ccc(CCNC(=O)c2ccc3c(c2)OCO3)cc1	> 52.3 µg/mL
CCn1ccnc1CN1CCCC(C(=O)c2cc(C)c(OC)c(C)c2)C1 (stereo unspecified)	47.6 µg/mL (≈ 134 µM)
Cn1c(N)c(C(=O)COC(=O)Cc2cccc(C(F)(F)F)c2)c(=O)n(C)c1=O	53.2 µg/mL (≈ 133 µM)
